Laboratory results from patent publication US8017725B2, “Use of heparin-binding domain of fibronectin for diagnosis and treatment of cancer” (Novartis Forschungesstiftung Zweigniederlassung Friedrich …, priority 2001, dated 2011).

How the values were obtained:
tumour cell lines = experiment: Adhesion assay on tumour cell lines; type: cell-based
Experimental: (§1) 60-well microtiter plates (Nunc) were coated with 10 μg/ml ECM molecules giving rise to 1 μg/cm^2 (fibronectin and tenascin-C) and 4 μg/cm^2 (FNIII13) for 1 h at 37° C. ECM proteins were coated separately, starting with fibronectin, followed by tenascin-C, FNIII13 and BSA. The non-coated plastic surface was blocked with 1% heat-inactivated BSA in PBS giving rise to 10 μg/cm^2 protein. Similarly, mixed substrata of collagen I and laminin 1, respectively with tenascin-C were prepared and tenascin-C was detected by ELISA.
Efficient fibronectin and tenascin-C coating was determined by ELISA with an anti-fibronectin and anti-tenascin-C antibody (Fischer, D. et al (1995) J Biol Chem 270: 3378-3384), respectively and by PAGE analysis of lysed surface-bound ECM material combined with Coomassie Brilliant Blue staining. Before plating, cells were serum starved for 18 h in DMEM containing 1×ITS (insulin, transferrin, selene) supplement, trypsinised, trypsin was blocked with 100 μg/ml soybean trypsin inhibitor in PBS and, cells were resuspended in serum-free medium and counted. 200-500 cells per well were plated for the indicated time points, fixed by addition of glutaraldehyde (2% final concentration) for 15 minutes and stained with 0.1% crystalviolet in 20% methanol for 30 minutes. Cells were observed under a Nikon microscope (Nikon diaphot) and pictures were taken with a Nikon camera. […]

[1] = system: MDA-MB435 breast carcinoma cells; experiment: Adhesion assay (attachment on coated ECM substrata); type: cell-based, human
Experimental: as §1
(§2) Efficient fibronectin and tenascin-C coating was determined by ELISA with an anti-fibronectin and anti-tenascin-C antibody (Fischer, D. et al (1995) J Biol Chem 270: 3378-3384), respectively and by PAGE analysis of lysed surface-bound ECM material combined with Coomassie Brilliant Blue staining. Before plating, cells were serum starved for 18 h in DMEM containing 1×ITS (insulin, transferrin, selene) supplement, trypsinised, trypsin was blocked with 100 μg/ml soybean trypsin inhibitor in PBS and, cells were resuspended in serum-free medium and counted. 200-500 cells per well were plated for the indicated time points, fixed by addition of glutaraldehyde (2% final concentration) for 15 minutes and stained with 0.1% crystalviolet in 20% methanol for 30 minutes. Cells were observed under a Nikon microscope (Nikon diaphot) and pictures were taken with a Nikon camera.

all cell lines tested = experiment: DNA replication assay, all cell lines tested; type: cell-based
Experimental: (§3) 96-well plates (Falcon) were coated as described above. Cells were serum starved overnight and trypsinised as described. 10^4 cells were transferred onto the coated plates in the presence of the indicated mitogens. 14 h later cells were labelled with radioactive ^3H-thymidine (0.5 μCi/well) for 4 h at 37° C., incorporated ^3H-thymidine was precipitated with 10% TCA and determined with a Beckman scintillation counter after cell lysis in 0.3N NaOH, 2% SDS. For long-term cell proliferation assays 2×10^3 MDA-MB435 cells were plated into ECM-coated 96-well plates in the presence of 10 ng/ml insulin and incubated for the indicated time points in a humidified chamber at 37° C. in a CO^2-incubator. 50% fresh medium with growth factor was added every 24 h. At different time points cells were trypsinised and counted.
In order to address whether tenascin-C alone and in ECM contexts other than fibronectin might also enhance proliferation, an investigation was carried out into DNA synthesis on a pure tenascin-C substratum where cells remained rounded and, on mixed substrata of collagen I and laminin 1 that contained tenascin-C where cells spread normally. […] To rule out that tenascin-C may shorten S-phase of the cell cycle in tumour cells, DNA synthesis of T98G cells was determined by assay every two hours starting 11 h after plating. […]

CHO-B2α27 cells [2] = experiment: Adhesion assay (attachment on coated ECM substrata); type: cell-based, Chinese hamster; conditions: CHO-B2α27, 20 h adhesion, ITS
Experimental: as §1, §2
(§4) The inventors tested whether expression of integrins capable of binding to fibronectin influences tenascin-C-induced compromised attachment on fibronectin. CHO-K1 cells (which express moderate levels of α5β1 (Bauer, J. S. et al (1992) J Cell Biol 116: 477-487)) were compared for levels of adhesion on fibronectin and other ECM substrates with that of cells that either express essentially no fibronectin binding integrins (CHO-B2), or overexpress α5β1 (CHO-B2α27) and αvβ1 (CHO-B2v7), respectively (Schreiner, C. et al (1991) Cancer Res 51: 1738-1740).

CHO-K1 cells [3] = experiment: as above; type: cell-based, Chinese hamster; conditions: CHO-K1, 20 h adhesion, ITS
Experimental: as §1, §2, §4

CHO-B2 cells [4] = experiment: as above; type: cell-based, Chinese hamster; conditions: CHO-B2, 20 h adhesion, ITS
Experimental: as §1, §2, §4

T98G glioblastoma cells [5] = experiment: Adhesion assay (attachment and spreading on coated ECM substrata); type: cell-based, human
Experimental: as §1, §2

[6] = system: MDA-MB435 breast carcinoma cells; experiment: DNA replication assay (3H-thymidine incorporation); type: cell-based, human; conditions: MDA MB 435, 100 ng/ml insulin
Experimental: as §3
(§5) Cell proliferation and DNA synthesis of MDA-MB435 breast carcinoma, T98G glioblastoma, and Chinese hamster ovary […] cells (CHO) grown on fibronectin, tenascin-C and on mixed fibronectin/tenascin-C substrata was determined. […] After 27 h, 51 h, and 75 h cells were counted. 24% and 33% more cells were counted on fibronectin/tenascin-C than on fibronectin after 51 h and 75 h of culturing, respectively. […]
(§6) DNA replication was determined by ^3H-thymidine incorporation and is described as relative increase in cpm over cells plated on fibronectin. […]

T98G glioblastoma cells [7] = experiment: DNA replication assay (3H-thymidine incorporation); type: cell-based, human; conditions: 40 ng/ml PDGF-BB
Experimental: as §3, §5, §6

CHO-B2α27 cells [8] = experiment: DNA replication assay (3H-thymidine incorporation); type: cell-based, Chinese hamster; conditions: CHO-B2α27, ITS
Experimental: as §3
(§7) DNA replication was determined by ^3H-thymidine incorporation and is described as relative increase in cpm over cells plated on fibronectin. Serum starved cells were triggered to enter S-phase by 40 ng/ml PDGF-BB (a), 100 ng/ml insulin (b) and ITS (c).

CHO-K1 cells [9] = experiment: DNA replication assay (3H-thymidine incorporation); type: cell-based, Chinese hamster; conditions: CHO-K1, ITS
Experimental: as §3, §7

CHO-B2 cells [10] = experiment: DNA replication assay (3H-thymidine incorporation); type: cell-based, Chinese hamster; conditions: CHO-B2, ITS
Experimental: as §3, §7

For “TN: Full length chicken tenascin-C TN260, recombinant, expressed in HEK-293 cells, used as coated substratum”, the “cells attached on tenascin-C” value (tumour cell lines; 1 h after plating, all cell lines tested) was “less than 10%”, the “blocking of cell attachment on fibronectin” value (tumour cell lines; molar ratio of tenascin-C to fibronectin of 1:8) was “blocked cell attachment on fibronectin as efficiently as in an equimolar ratio” and the “numbers of attached cells” value ([1]; MDA MB 435, 1 h attachment, serum free medium) was 8.2 +/− 3.9 % of cells attached on fibronectin. The “numbers of attached cells” value ([1]; MDA MB 435, 20 h adhesion, 100 ng/ml insulin) was 4.0 +/− 0.2 % of cells attached on fibronectin, the “DNA replication indices increase on pure tenascin-C” value (all cell lines tested) was at most 11 fold and the “numbers of attached cells” value (CHO-B2α27 cells [2]) was 4.3 +/− 0.7 % of cells attached on fibronectin. The “numbers of attached cells” value (CHO-K1 cells [3]) was 4.7 +/− 0.2 % of cells attached on fibronectin, the “numbers of attached cells” value (CHO-B2 cells [4]) was 8.0 +/− 2.9 % of cells attached on fibronectin and the “numbers of attached cells” value (T98G glioblastoma cells [5]; 1 h attachment, serum free medium) was 9.3 +/− 0.9 % of cells attached on fibronectin. The “numbers of attached cells” value (T98G glioblastoma cells [5]; 20 h adhesion, 40 ng/ml PDGF-BB) was 14.6 +/− 0.4 % of cells attached on fibronectin, the “DNA replication by 3H-thymidine incorporation” value [6] was 2.7 +/− 0.6 relative increase in cpm over cells plated on fibronectin and the “DNA replication by 3H-thymidine incorporation” value (T98G glioblastoma cells [7]) was 3.0 +/− 0.9 relative increase in cpm over cells plated on fibronectin. For the same substance, the “DNA replication by 3H-thymidine incorporation” value (CHO-B2α27 cells [8]) was 11 +/− 3.9 relative increase in cpm over cells plated on fibronectin, the “DNA replication by 3H-thymidine incorporation” value (CHO-K1 cells [9]) was 5.9 +/− 1.7 relative increase in cpm over cells plated on fibronectin and the “DNA replication by 3H-thymidine incorporation” value (CHO-B2 cells [10]) was 7.1 +/− 0.2 relative increase in cpm over cells plated on fibronectin.
